Target: T1, mu opiate receptor (MOR) (Rattus norvegicus, UniProt P33535)
T1 construct: from tissue; host or cells: striatum (membrane preparation)
Assay type: biochemical
Conditions: for Concentration of FLNA-Binding Compound as Agonist 0.1 μM / Concentration of FLNA-Binding Compound as Agonist 1 μM / Concentration of FLNA-Binding Compound as Agonist 1 μM + BFNA: [35S]GTPγS binding to Gαo in striatal membranes; for Concentration of FLNA-Binding Compound as Agonist 0.1 μM: compound 0.1 μM; for Concentration of FLNA-Binding Compound as Agonist 1 μM: compound 1 μM; for Concentration of FLNA-Binding Compound as Agonist 1 μM + BFNA: compound 1 μM plus 1 μM β-funaltrexamine (MOR antagonist)

T1 sequence (P33535 whole entry): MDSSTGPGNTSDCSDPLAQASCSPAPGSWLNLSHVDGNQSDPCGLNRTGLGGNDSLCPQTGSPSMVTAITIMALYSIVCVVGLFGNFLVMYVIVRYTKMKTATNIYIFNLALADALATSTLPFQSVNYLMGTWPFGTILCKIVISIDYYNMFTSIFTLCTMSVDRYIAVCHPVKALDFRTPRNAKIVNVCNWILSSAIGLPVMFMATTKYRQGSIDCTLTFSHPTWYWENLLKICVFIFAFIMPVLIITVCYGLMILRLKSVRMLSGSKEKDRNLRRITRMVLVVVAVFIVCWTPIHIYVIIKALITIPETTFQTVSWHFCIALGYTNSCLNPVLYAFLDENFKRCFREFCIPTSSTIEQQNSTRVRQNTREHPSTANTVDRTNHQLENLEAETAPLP

Row | Compound | % DAMGO (0.1 μM) | % DAMGO (1 μM) | % DAMGO + BFNA | Concentration of FLNA-Binding Compound as Agonist 0.1 μM | Concentration of FLNA-Binding Compound as Agonist 1 μM | Concentration of FLNA-Binding Compound as Agonist 1 μM + BFNA
1 | COc1c2c(cc3c1C(CC(=O)CCc1ccc(F)cc1)[N+](C)(C)CC3)OCO2 (stereo not drawn) [Compound B0018] | 70.3% | 53.5% | 69.1% | 118.8% | 143.0% | 45.6%
2 | COc1c2c(cc3c1C(CC(=O)/C=C/c1ccc(Cl)cc1)[N+](C)(C)CC3)OCO2 (stereo not drawn) [Compound B0019] | 59.7% | 96.0% | 123.3% | 101.0% | 256.5% | 81.4%
3 | CCOc1ccc(C(=O)CC2c3c(cc4c(c3OC)OCO4)CC[N+]2(C)C)cc1F (stereo not drawn) [Compound B0020] | 30.1% | 68.0% | 47.8% | 51.6% | 181.6% | 24.9%
4 | COc1ccc(C(=O)CC2c3c(cc4c(c3OC)OCO4)CC[N+]2(C)C)cc1C (stereo not drawn) [Compound B0021] | 75.9% | 104.7% | 123.6% | 126.9% | 256.4% | 42.9%
5 | COc1cccc(OC)c1C(=O)CC1c2c(cc3c(c2OC)OCO3)CC[N+]1(C)C (stereo not drawn) [Compound B0023] | 99.4% | 100.1% | 81.8% | 166.1% | 245.3% | 28.4%
6 | COc1ccc(C(=O)CC2c3c(cc4c(c3OC)OCO4)CC[N+]2(C)C)cc1 (stereo not drawn) [Compound B0024] | 93.2% | 116.7% | 58.2% | 155.8% | 285.9% | 20.2%
7 | COc1ccccc1C(=O)CC1c2c(cc3c(c2OC)OCO3)CC[N+]1(C)C (stereo not drawn) [Compound B0025] | 96.3% | 86.8% | 211.8% | 159.6% | 234.6% | 137.7%
8 | COc1ccc(C(=O)CC2c3c(cc4c(c3OC)OCO4)CC[N+]2(C)C)cc1OC (stereo not drawn) [Compound B0026] | 88.8% | 87.4% | 55.3% | 152.0% | 233.3% | 28.8%
9 | COc1ccc(C(=O)CC2c3c(cc4c(c3OC)OCO4)CC[N+]2(C)C)c(F)c1 (stereo not drawn) [Compound B0027] | 82.3% | 100.0% | 41.5% | 140.9% | 266.9% | 21.6%
10 | COc1c2c(cc3c1C(CC(=O)CCc1ccc(O)cc1)[N+](C)(C)CC3)OCO2 (stereo not drawn) [Compound B0028] | 103.5% | 131.0% | 125.3% | 199.1% | 357.7% | 55.0%
11 | COc1ccc(CC(=O)CC2c3c(cc4c(c3OC)OCO4)CC[N+]2(C)C)c(OC)c1 (stereo not drawn) [Compound B0029] | 89.4% | 77.0% | 40.1% | 171.9% | 210.3% | 17.6%
12 | COc1ccccc1CC(O)CC1c2c(cc3c(c2OC)OCO3)CCN1C (stereo not drawn) [Compound B0030] | 62.6% | 103.4% | 172.9% | 107.2% | 276.1% | 90.1%
13 | COc1c2c(cc3c1C(CC(=O)Cc1ccccc1C)[N+](C)(C)CC3)OCO2 (stereo not drawn) [Compound B0031] | 109.6% | 99.6% | 65.6% | 210.8% | 272.0% | 28.8%
14 | COc1ccccc1CC(O)CC1c2c(cc3c(c2OC)OCO3)CC[N+]1(C)C (stereo not drawn) [Compound B0032] | 115.0% | 109.0% | 35.5% | 221.1% | 297.7% | 15.6%
15 | COc1ccc(C(=O)CC2c3c(cc4c(c3OC)OCO4)CC[N+]2(C)C)c(O)c1 (stereo not drawn) [Compound B0033] | 77.6% | 69.2% | 95.4% | 149.3% | 188.9% | 41.9%
16 | COc1cccc(CCC(=O)CC2c3c(cc4c(c3OC)OCO4)CC[N+]2(C)C)c1 (stereo not drawn) [Compound B0034] | 71.6% | 88.1% | 80.2% | 122.5% | 235.2% | 41.8%
17 | COc1cc(OC)cc(C(=O)CC2c3c(cc4c(c3OC)OCO4)CC[N+]2(C)C)c1 (stereo not drawn) [Compound B0035] | 109.8% | 93.2% | 142.4% | 188.0% | 248.7% | 74.2%
18 | COc1cccc(OC)c1CC(=O)CC1c2c(cc3c(c2OC)OCO3)CC[N+]1(C)C (stereo not drawn) [Compound B0036] | 39.2% | 52.1% | 199.7% | 61.4% | 120.6% | 65.1%
19 | COc1cc(C(=O)CC2c3c(cc4c(c3OC)OCO4)CC[N+]2(C)C)cc(OC)c1OC (stereo not drawn) [Compound B0037] | 76.5% | 80.4% | 325.8% | 119.8% | 186.0% | 106.2%
20 | COc1cccc(CC(=O)CC2c3c(cc4c(c3OC)OCO4)CC[N+]2(C)C)c1OC (stereo not drawn) [Compound B0038] | 94.2% | 88.7% | 359.2% | 147.5% | 205.5% | 117.1%
21 | COCOc1ccc(CCC(=O)CC2c3c(cc4c(c3OC)OCO4)CC[N+]2(C)C)cc1 (stereo not drawn) [Compound B0040] | 93.2% | 105.1% | 169.6% | 146.0% | 243.3% | 55.3%
22 | COCOc1ccc(C(=O)CC2c3c(cc4c(c3OC)OCO4)CC[N+]2(C)C)cc1C (stereo not drawn) [Compound B0041] | 39.3% | 47.2% | 128.5% | 61.6% | 109.3% | 41.9%
23 | COc1ccc(CCC(=O)CC2c3c(cc4c(c3OC)OCO4)CC[N+]2(C)C)cc1OC (stereo not drawn) [Compound B0042] | 39.6% | 42.3% | 163.9% | 69.9% | 107.5% | 43.1%
24 | COc1ccc(CCC(=O)CC2c3c(cc4c(c3OC)OCO4)CC[N+]2(C)C)c(OC)c1 (stereo not drawn) [Compound B0043] | 42.4% | 97.6% | 632.7% | 74.8% | 248.1% | 166.4%
25 | COc1ccc(OC)c(CCC(=O)CC2c3c(cc4c(c3OC)OCO4)CC[N+]2(C)C)c1 (stereo not drawn) [Compound B0044] | 49.4% | 66.9% | 511.8% | 87.3% | 170.0% | 134.6%
26 | COc1ccccc1CCC(=O)CC1c2c(cc3c(c2OC)OCO3)CC[N+]1(C)C (stereo not drawn) [Compound B0045] | 82.6% | 83.4% | 257.1% | 129.3% | 193.1% | 83.8%
27 | COc1ccc(CCC(=O)CC2c3c(cc4c(c3OC)OCO4)CCN2C)cc1 (stereo not drawn) [Compound B0047] | 106.3% | 92.6% | 260.1% | 187.8% | 235.6% | 68.4%
28 | COc1ccc(CCC(O)CC2c3c(cc4c(c3OC)OCO4)CCN2C)cc1 (stereo not drawn) [Compound B0048] | 104.8% | 87.8% | 298.5% | 185.1% | 223.4% | 78.5%
